In patent US20250177408A1, “INHIBITOR OF INTERACTION BETWEEN YAP/TAZ AND TEAD, PREPARATION THEREOF, PHARMACEUTICAL COMPOSITION THEREOF AND USE THEREOF” (ETERN BIOPHARMA (SHANGHAI) CO., LTD., priority 2022, published 2025):

Assays:
YAP/TEAD reporter gene = YAP/TEAD reporter gene inhibition experiment in SF268-YAP-Luc cells; assay type: cell-based; details: SF268-YAP-Luc cells, 24 hours, Renila luciferase signal corrected for cell viability; read-out: Activity of each compound in inhibiting the expression of YAP/TEAD reporter gene (grades of IC50 values)
Procedure: In this example, the inhibition of the compound on the target was detected by the signal of the reporter gene in the stable cell line SF268-YAP-Luc containing the YAP/TEAD reporter gene.
A sequence containing 6 tandem YAP/TEAD binding sites and a basal transcription promoter was constructed on the vector pGL4.76 of Promega Company. The constructed reporter gene vector was transfected into SF268 cells (NCI DCTD tumor/cell line repository) and screened with 0.5 μg/mL hygromycin to obtain SF268-YAP-Luc stable strain.
SF268-YAP-Luc cells were seeded into a 96-well plate at a density of 3000 cells per well with a volume of 100 μL per well (cell culture medium composition: RPMI1640 (Gibco-A10491-01)+10% FBS (Gibco-10099-141C)+1% penicillin-streptomycin (5,000 U/mL, Gibco-15070-063)), and the cells were incubated overnight in a 37° C., 5% carbon dioxide incubator.
On the next day, the compounds to be tested were 3-fold diluted, and a total of 8 concentration gradients were set up; a certain volume of DMSO or the compounds to be tested was added to each well, respectively, and 2 replicates were set up for each concentration, and the final concentration of DMSO was controlled to be no higher than 0.5%. The cells were incubated for 24 hours in a 37° C., 5% carbon dioxide incubator. Two identical parallel plates were set up for cell seeding and compound treatment.
Renila-Glo luciferase assay system kit (Promega, E2720) was used to detect the reporter gene signals of the control group and treatment group. 70 μL of Renila-Glo was added to each well, mixed well, and incubated at room temperature for 10 minutes. The signal was read using EnVision® Multilabel Plate Reader (Perkin Elmer).
Cell viability was detected in the control group and treatment group using CellTiter-Glo Luminescent Cell Viability Assay kit (Promega, G7570). 50 μL of CellTiter-Glo was added to each well, mixed well, and incubated at room temperature for 10 minutes. The signal was read using En Vision® Multilabel Plate Reader (Perkin Elmer).
The signal of Renila luciferase after correcting for cell viability was analyzed, and the inhibition rate of the compound on the reporter gene was calculated. The inhibition percentage (%) is calculated by the following formula: […]
Using Graphpad Prism software, the IC50 values for the compounds' inhibitory activity against Renila luciferase signaling were calculated.

MSTO-211H cells = test: Cell proliferation inhibition experiment (CellTiter-Glo); assay type: cell-based; details: Homo sapiens, 96 hours, read-out: Inhibitory activity of each compound on the proliferation of MSTO-211H cells (grades of IC50 values)
How it was run: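 MSTO-211H cells (1500/well, RPMI1640 + 10% FBS) were plated overnight at 37° C, 5% CO2, then exposed in duplicate to 9 three-fold compound dilutions (DMSO ≤0.5% final) for 96 hours. Viability was read as CellTiter-Glo luminescence after 10 min at room temperature. IC50 was derived from inhibition of the CTG signal.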

[1] = target: YAP-TEAD protein interaction (His-TEAD1 (209-426) protein, Bio-YAP peptide (60-100)) (Homo sapiens, UniProt P28347); test: YAP-TEAD protein interaction HTRF experiment; assay type: binding; details: His-TEAD1 (209-426) 10 nM, Bio-YAP peptide 50 nM, read-out: Activity of each compound in blocking YAP-TEAD protein interaction (grades of IC50 values)
Sequence of YAP-TEAD protein interaction (His-TEAD1 (209-426) protein, Bio-YAP peptide (60-100)) (P28347 209-426): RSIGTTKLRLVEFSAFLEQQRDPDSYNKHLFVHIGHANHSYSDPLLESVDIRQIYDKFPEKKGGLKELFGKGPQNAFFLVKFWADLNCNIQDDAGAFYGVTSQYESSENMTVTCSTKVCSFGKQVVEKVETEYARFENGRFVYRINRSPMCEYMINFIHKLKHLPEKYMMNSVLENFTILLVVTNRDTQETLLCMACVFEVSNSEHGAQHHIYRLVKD
How it was run: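 His-TEAD1 (209-426) at 10 nM final was preincubated 20 min at RT with compounds (10-point 3-fold dilutions, duplicates, 1% DMSO), then Bio-YAP peptide, 10 min. Anti-His-Eu cryptate/streptavidin-XL665 added for 1 h at RT; HTRF read at ex 320 nm, Em665/Em620 ratio ×10000, IC50 from % inhibition.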

Structure (SMILES) | IC50 [1] | IC50 (YAP/TEAD reporter gene) | IC50 (MSTO-211H cells)
NC(=O)c1cc2c(c(F)c1-c1c(Cl)c(F)cc3c1C[C@](c1ccccc1)([C@@H]1CCCN1)O3)OCCO2 (atropisomer, axis not shown) [Compound 1, 7-((2S,4S)-5-Chloro-6-fluoro-2-phenyl-2-((S)-pyrrolidin-2-yl)-2,3-dihydrobenzofuran-4-yl)-8-fluoro-2,3-dihydrobenzo[b][1,4]dioxine-6-carboxamide] | < 50 nM | < 50 nM | < 200 nM
Cn1cc2c(n1)Oc1c(cc(C(N)=O)c(-c3c(Cl)c(F)cc4c3C[C@](c3ccccc3)([C@@H]3CCCN3)O4)c1F)O2 (atropisomer, axis not shown) [Compound 8, (S)-7-((S)-5-Chloro-6-fluoro-2-phenyl-2-((S)-pyrrolidin-2-yl)-2,3-dihydrobenzofuran-4-yl)-8-fluoro-2-methyl-2H-benzo[5,6][1,4]dioxoino[2,3-c]pyrazole-6-carboxamide] | < 50 nM | < 50 nM | < 200 nM
CNC[C@@]1(c2ccccc2)Cc2c(cc(F)c(Cl)c2-c2c(C(N)=O)cn3ccnc3c2F)O1 (atropisomer, axis not shown) [Compound I-1] | < 50 nM | < 50 nM | < 200 nM

Continued, in another order:

IC50 [1] | Structure (SMILES) | IC50 (YAP/TEAD reporter gene) | IC50 (MSTO-211H cells)
< 50 nM | Cn1cc2c(n1)COc1c-2cc(C(N)=O)c(-c2c(Cl)c(F)cc3c2C[C@](c2ccccc2)([C@@H]2CCCN2)O3)c1F (atropisomer, axis not shown) [Compound 3, (S)-7-((S)-5-Chloro-6-fluoro-2-phenyl-2-((S)-pyrrolidin-2-yl)-2,3-dihydrobenzofuran-4-yl)-6-fluoro-2-methyl-2,4-dihydrochromeno[3,4-c]pyrazole-8-carboxamide] | < 50 nM | < 200 nM
< 50 nM | NC(=O)c1cc2c(c(F)c1-c1c(Cl)c(F)cc3c1C[C@](c1ccccc1)([C@@H]1CCCN1)O3)OCC(=O)N2 (atropisomer, axis not shown) [Compound I-23, (S)-7-((S)-5-Chloro-6-fluoro-2-phenyl-2-((S)-pyrrolidin-2-yl)-2,3-dihydrobenzofuran-4-yl)-8-fluoro-3-oxo-3,4-dihydro-2H-benzo[b][1,4]oxazine-6-carboxamide] | 50 to 500 nM | < 200 nM
< 50 nM | CN1CCOc2c1cc(C(N)=O)c(-c1c(Cl)c(F)cc3c1C[C@](c1ccccc1)([C@@H]1CCCN1)O3)c2F (atropisomer, axis not shown) [Compound I-24, (S)-7-((S)-5-Chloro-6-fluoro-2-phenyl-2-((S)-pyrrolidin-2-yl)-2,3-dihydrobenzofuran-4-yl)-8-fluoro-4-methyl-3,4-dihydro-2H-benzo[b][1,4]oxazine-6-carboxamide] | < 50 nM | < 200 nM
< 50 nM | CN1C(=O)COc2c1cc(C(N)=O)c(-c1c(Cl)c(F)cc3c1C[C@](c1ccccc1)([C@@H]1CCCN1)O3)c2F (atropisomer, axis not shown) [Compound I-25, (S)-7-((S)-5-Chloro-6-fluoro-2-phenyl-2-((S)-pyrrolidin-2-yl)-2,3-dihydrobenzofuran-4-yl)-8-fluoro-4-methyl-3-oxo-3,4-dihydro-2H-benzo[b][1,4]oxazine-6-carboxamide] | 50 to 500 nM | 200 to 500 nM
< 50 nM | CC(=O)N1CCOc2c1cc(C(N)=O)c(-c1c(Cl)c(F)cc3c1C[C@](c1ccccc1)([C@@H]1CCCN1)O3)c2F (atropisomer, axis not shown) [Compound I-27, (S)-4-Acetyl-7-((S)-5-chloro-6-fluoro-2-phenyl-2-((S)-pyrrolidin-2-yl)-2,3-dihydrobenzofuran-4-yl)-8-fluoro-3,4-dihydro-2H-benzo[b][1,4]oxazine-6-carboxamide] | < 50 nM | 200 to 500 nM
